We go through 14 compounds from PubChem BioAssay (NCI).

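Dose response: 5 concentrations. Exposure: 48 h. Format: 96-well plates. Endpoint: linear interpolation; highest concentration if not reached. GI50 marks 50% less growth. The concentration for full growth arrest is given as TGI.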 Some results are limits rather than exact numbers.

Some test systems named below: LOX IMVI melanoma; HOP-92 NSCLC; MDA-MB-231 breast; MOLT-4 leukemia; SK-MEL-28 melanoma; NCI-H23 lung; SNB-75 CNS; HCT-116 colon; UO-31 renal; 786-0 renal.
Experiment in all cases: NCI anticancer screen, dose series, 48 h

`COc1ccc(-c2nc3sc4c(c3c(=O)[nH]2)CCCCCC4)cc1`: the GI50 in the assay with LOX IMVI melanoma is 3.12 µM; with HOP-92 NSCLC, 1.4 µM; in the assay on MDA-MB-231 breast, 4.04 µM; in the assay on MOLT-4 leukemia it was 31.6 µM; in the assay on SK-MEL-28 melanoma, 6.67 µM; with NCI-H23 lung, greater than 33.2 µM. Also, the GI50 in the assay on SNB-75 CNS is 2.2 µM; in the assay on HCT-116 colon, 1.39 µM; in the assay on UO-31 renal it was greater than 33.2 µM; in the assay on 786-0 renal, 8.08 µM. In addition, the TGI with LOX IMVI melanoma was greater than 33.2 µM; with HOP-92 NSCLC, 14.5 µM; in the assay on MDA-MB-231 breast it was greater than 33.2 µM; in the assay with MOLT-4 leukemia it was greater than 33.2 µM; with SK-MEL-28 melanoma, greater than 33.2 µM; in the assay on NCI-H23 lung, greater than 33.2 µM. Further, the TGI in the assay with SNB-75 CNS was 16.5 µM; with HCT-116 colon, greater than 33.2 µM; with UO-31 renal, greater than 33.2 µM; with 786-0 renal, greater than 33.2 µM.

With `CC1(C)CC(=O)c2c(C(F)(F)F)nn(-c3ccc(C(N)=O)c(NC4CCC(OC(=O)CN)CC4)c3)c2C1` (configuration not stated), the GI50 in the assay with LOX IMVI melanoma was 0.0616 µM; in the assay with HOP-92 NSCLC, 0.124 µM; in the assay with MDA-MB-231 breast, 0.112 µM; in the assay with MOLT-4 leukemia it was 0.0437 µM; with SK-MEL-28 melanoma it was 0.0522 µM; in the assay with NCI-H23 lung it was 0.0935 µM. The GI50 in the assay on SNB-75 CNS is 0.634 µM; in the assay on HCT-116 colon, 0.0405 µM; in the assay on UO-31 renal, 0.418 µM; with 786-0 renal, 16.2 µM. Also, the TGI is 0.33 µM with LOX IMVI melanoma; 1.04 µM with HOP-92 NSCLC; 31.5 µM in the assay with MDA-MB-231 breast; 24.4 µM with MOLT-4 leukemia; 20.6 µM with SK-MEL-28 melanoma; greater than 100 µM in the assay on NCI-H23 lung. For the same compound, the TGI with SNB-75 CNS was greater than 100 µM; in the assay with HCT-116 colon it was 31.6 µM; with UO-31 renal it was greater than 27.1 µM; with 786-0 renal, greater than 100 µM.

As for `Cc1ccccc1[P+](Cc1ccccc1)(c1ccccc1)c1ccccc1`, the GI50 in the assay on LOX IMVI melanoma is 2.27 µM; in the assay on MDA-MB-231 breast it was 2.06 µM; in the assay on MOLT-4 leukemia it was 3.58 µM; in the assay with SK-MEL-28 melanoma, 2.91 µM; in the assay on SNB-75 CNS, 2.14 µM; in the assay on HCT-116 colon, 1.92 µM. For the same compound, the GI50 is 14.2 µM in the assay with UO-31 renal and 4.81 µM with 786-0 renal. The TGI in the assay with LOX IMVI melanoma was 15.3 µM; in the assay on MDA-MB-231 breast it was 28 µM; with MOLT-4 leukemia it was 17.6 µM; with SK-MEL-28 melanoma, 37.9 µM; in the assay on SNB-75 CNS it was 20.2 µM; in the assay with HCT-116 colon, greater than 100 µM. Besides, the TGI in the assay on UO-31 renal is 69.2 µM; in the assay on 786-0 renal it was greater than 100 µM.

On to `O=C1/C(=C\c2c[nH]c3ccccc23)c2ccccc2N1c1c(Cl)cccc1Cl`, for which the GI50 in the assay on LOX IMVI melanoma is 1.59 µM; in the assay on HOP-92 NSCLC, 2 µM; in the assay with MDA-MB-231 breast, 1.59 µM; with MOLT-4 leukemia, 1.5 µM; in the assay on SK-MEL-28 melanoma it was 2.14 µM; with NCI-H23 lung, 1.66 µM. The GI50 in the assay with SNB-75 CNS is 1.68 µM; in the assay with HCT-116 colon, 1.3 µM; in the assay on UO-31 renal it was 1.4 µM; in the assay on 786-0 renal, 1.74 µM. The TGI was 3.09 µM with LOX IMVI melanoma; 3.54 µM in the assay with HOP-92 NSCLC; 3.21 µM with MDA-MB-231 breast; 5.13 µM in the assay on MOLT-4 leukemia; 3.8 µM in the assay with SK-MEL-28 melanoma; 3.38 µM in the assay with NCI-H23 lung. The TGI with SNB-75 CNS was found to be 5.61 µM; with HCT-116 colon, 2.56 µM; in the assay on UO-31 renal, 3.23 µM; with 786-0 renal it was 3.21 µM.

As to `CCCCCCCCCCC(C(=O)O)C1(C(=O)O)CCC(=O)O1` (configuration not stated), the TGI in the assay on LOX IMVI melanoma, in the assay with HOP-92 NSCLC, in the assay with MDA-MB-231 breast, in the assay on MOLT-4 leukemia, with SK-MEL-28 melanoma and with NCI-H23 lung was greater than 100 µM each time. Further, the TGI in the assay with SNB-75 CNS, with HCT-116 colon, with UO-31 renal and with 786-0 renal was greater than 100 µM in each case.

Regarding `CN1CCC(n2cnc(-c3ccc(F)cc3)c2-c2ccnc(NCCO)n2)CC1`, the GI50 in the assay with LOX IMVI melanoma is 13.8 µM; with HOP-92 NSCLC it was 5.43 µM; in the assay on MDA-MB-231 breast, greater than 25 µM; in the assay with MOLT-4 leukemia it was greater than 25 µM; in the assay with SK-MEL-28 melanoma it was greater than 25 µM; in the assay on NCI-H23 lung, greater than 25 µM. Besides, the GI50 was 12.3 µM in the assay with SNB-75 CNS, 14.5 µM in the assay with HCT-116 colon, 13.6 µM in the assay with UO-31 renal and greater than 23.9 µM in the assay with 786-0 renal. For the same compound, the TGI with LOX IMVI melanoma, in the assay with HOP-92 NSCLC, with MDA-MB-231 breast, in the assay with MOLT-4 leukemia, in the assay with SK-MEL-28 melanoma and in the assay with NCI-H23 lung was greater than 25 µM each time. The TGI in the assay with SNB-75 CNS, with HCT-116 colon, with UO-31 renal and in the assay with 786-0 renal was greater than 25 µM in each case.

`O=C1CC(c2ccc(O)cc2)C2(O1)C(=O)OC(C(O)CO)C2O` (configuration not stated): the TGI in the assay with LOX IMVI melanoma, in the assay on MDA-MB-231 breast, in the assay with MOLT-4 leukemia, in the assay on SK-MEL-28 melanoma, with NCI-H23 lung and with SNB-75 CNS was greater than 100 µM each time. Besides, the TGI with HCT-116 colon, in the assay on UO-31 renal and in the assay on 786-0 renal was greater than 100 µM each time.

Regarding `CCCCC(CC)CN=C(N)NC(N)=NCCCCCCN=C(N)NC(N)=NCC(CC)CCCC` (configuration not stated), the GI50 was 1.85 µM with MDA-MB-231 breast, 2.26 µM with SK-MEL-28 melanoma, 3.03 µM with UO-31 renal and 2.16 µM in the assay with 786-0 renal. The TGI in the assay with MDA-MB-231 breast was 3.65 µM; in the assay with SK-MEL-28 melanoma it was 5.03 µM; in the assay with UO-31 renal, 10.1 µM; with 786-0 renal, 4.91 µM.

For `CCCCCCCCCCCCCCCCN1CC2CCCCC2C1` (configuration not stated), the GI50 in the assay on LOX IMVI melanoma is 3.77 µM; in the assay with HOP-92 NSCLC, 2.38 µM; in the assay with MDA-MB-231 breast it was 4.01 µM; with MOLT-4 leukemia, 1.92 µM; in the assay on NCI-H23 lung it was 3.14 µM; in the assay on HCT-116 colon, 2.97 µM. Moreover, the GI50 in the assay with UO-31 renal was 6 µM; in the assay with 786-0 renal, 3.49 µM. Further, the TGI with LOX IMVI melanoma was 13.8 µM; in the assay with HOP-92 NSCLC, 6.52 µM; in the assay on MDA-MB-231 breast, 14 µM; in the assay with MOLT-4 leukemia it was 4.28 µM; in the assay with NCI-H23 lung, 9.94 µM; in the assay with HCT-116 colon, 10.8 µM. Besides, the TGI in the assay with UO-31 renal stood at 19.2 µM; with 786-0 renal it was 14 µM.

As for `Oc1cccc2ccc(N/N=C/c3cc(CN4CCCCC4)c(O)c4ncccc34)nc12`, the GI50 in the assay on LOX IMVI melanoma is 0.0553 µM; with HOP-92 NSCLC it was 0.0165 µM; with MDA-MB-231 breast, 0.0991 µM; with MOLT-4 leukemia it was 0.0597 µM; in the assay on SK-MEL-28 melanoma it was 0.362 µM; in the assay with NCI-H23 lung it was 0.0485 µM. Further, the GI50 is 0.0426 µM with HCT-116 colon, 0.0292 µM in the assay on UO-31 renal and 0.0826 µM in the assay with 786-0 renal. Further, the TGI with LOX IMVI melanoma was found to be 1.61 µM; with HOP-92 NSCLC, 0.0857 µM; with MDA-MB-231 breast it was 2.03 µM; in the assay on MOLT-4 leukemia, 3.82 µM; with SK-MEL-28 melanoma, 15.9 µM; in the assay with NCI-H23 lung, 1.45 µM. Besides, the TGI is 1.71 µM with HCT-116 colon, 1.71 µM in the assay on UO-31 renal and 1.7 µM with 786-0 renal.

On to `Cc1ccc(N=Nc2c(O)c(C(=O)O)cc3ccccc23)cc1C`, for which the TGI with HOP-92 NSCLC, with MDA-MB-231 breast, in the assay on MOLT-4 leukemia, in the assay on SK-MEL-28 melanoma, in the assay with NCI-H23 lung and in the assay with SNB-75 CNS was greater than 100 µM throughout. In addition, the TGI with HCT-116 colon, in the assay on UO-31 renal and in the assay with 786-0 renal was greater than 100 µM throughout.

`CCCCCCCCN=C(N)c1ccc(N2CCN(c3ccc(C(N)=NCCCCCCCC)cc3)CC2)cc1`: the GI50 in the assay on LOX IMVI melanoma was 1.92 µM; in the assay with HOP-92 NSCLC, 14.9 µM; in the assay with MDA-MB-231 breast it was 3.37 µM; with MOLT-4 leukemia, 0.724 µM; in the assay on SK-MEL-28 melanoma, 2.74 µM; in the assay on NCI-H23 lung, 1.52 µM. The GI50 with HCT-116 colon was 1.64 µM; in the assay with UO-31 renal it was 4.22 µM; in the assay on 786-0 renal it was 1.67 µM. For the same compound, the TGI with LOX IMVI melanoma was 9.01 µM; in the assay with HOP-92 NSCLC it was greater than 50 µM; in the assay with MDA-MB-231 breast, greater than 50 µM; with MOLT-4 leukemia, 3.4 µM; in the assay on SK-MEL-28 melanoma, 17.2 µM; in the assay with NCI-H23 lung it was 6.49 µM. Moreover, the results for the TGI with HCT-116 colon, in the assay on UO-31 renal and in the assay with 786-0 renal were 5.99 µM, greater than 50 µM and 5.49 µM, respectively.

As to `CC1=Nc2ccccc2S/C1=C(/C)NNC(=O)C(N)=O`, the TGI in the assay with LOX IMVI melanoma, in the assay with HOP-92 NSCLC, in the assay on MOLT-4 leukemia, with SK-MEL-28 melanoma, in the assay with NCI-H23 lung and with SNB-75 CNS was greater than 100 µM throughout. The TGI in the assay with HCT-116 colon, with UO-31 renal and in the assay with 786-0 renal was greater than 100 µM in each case.

Consider `Cc1ccc(N=Cc2ccc3c(c2)OCO3)cc1C`, for which the TGI in the assay with LOX IMVI melanoma, with HOP-92 NSCLC, in the assay with MOLT-4 leukemia, with SK-MEL-28 melanoma, with NCI-H23 lung and in the assay on SNB-75 CNS was greater than 100 µM in each case. For the same compound, the TGI in the assay with HCT-116 colon, with UO-31 renal and with 786-0 renal was greater than 100 µM throughout.
